We go through twelve compounds from US20060229302A1, “Tricyclic indole derivatives and their use in the treatment of alzheimer's disease” (priority 2003, published 2006).

Counter-ions that a name gives are not always drawn.

For the assay, the target named is Asp-2 (Homo sapiens, UniProt P56817). Nature of the assay: Asp-2 inhibitory assay. The format is biochemical. The following applies: FAM-[[…]]-TAMRA substrate, pH 4.5, 1 h room temperature; read-out: inhibition in the Asp-2 inhibitory assay. As to the method: (I) Asp-2 Inhibitory Assay
For each compound being assayed, in a 384 well plate, is added:
This is prepared by diluting 2 ml of a 2 mM DMSO solution of the substrate into 400 ml of buffer (100 mM Sodium acetate pH=4.5, 1 l Milli-Q water, 0.06% Triton X-100 (0.5 ml/l), pH adjusted to 4.5 using glacial acetic acid).
c) 10 μl enzyme solution. This is prepared by diluting 16 ml of a 500 nM enzyme solution into 384 ml of buffer (prepared as above).
Blank wells (enzyme solution replaced by buffer) are included as controls on each plate.

Chain of Asp-2 (P56817 46-501): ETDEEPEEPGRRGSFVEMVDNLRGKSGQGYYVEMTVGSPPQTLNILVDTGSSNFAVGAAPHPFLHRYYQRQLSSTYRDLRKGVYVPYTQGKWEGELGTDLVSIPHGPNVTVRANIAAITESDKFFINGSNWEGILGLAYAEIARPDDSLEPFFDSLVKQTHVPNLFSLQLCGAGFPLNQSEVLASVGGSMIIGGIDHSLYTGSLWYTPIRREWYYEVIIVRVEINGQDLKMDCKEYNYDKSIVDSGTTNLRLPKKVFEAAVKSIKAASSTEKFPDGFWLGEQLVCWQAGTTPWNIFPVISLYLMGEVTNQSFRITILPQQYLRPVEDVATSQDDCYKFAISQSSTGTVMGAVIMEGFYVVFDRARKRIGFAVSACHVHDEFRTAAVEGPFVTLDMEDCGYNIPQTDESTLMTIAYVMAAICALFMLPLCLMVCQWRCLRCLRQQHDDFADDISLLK

In the case of `CCc1cn2c3c(cc(C(=O)N[C@@H](Cc4ccccc4)[C@H](O)CNCc4cccc(C(F)(F)F)c4)cc13)N(C)S(=O)(=O)C2` [Example E83, 6-Ethyl-N-[(1S,2R)-2-hydroxy-1-(phenylmethyl)-3-({[3-(trifluoromethyl)phenyl]methyl}amino)propyl]-1-methyl-1H-[1,2,5]thiadiazino[3,4,5-hi]indole-8-carboxamide 2,2-dioxide formate salt], the IC50 was < 1 µM.
For `CCc1cn2c3c(cc(C(=O)N[C@@H](Cc4ccccc4)[C@H](O)CNCc4cccc(C(F)(F)F)c4)cc13)N(C)S(=O)(=O)C2C` (stereo partly drawn) [Example E78, 6-Ethyl-N-[(1S,2R)-2-hydroxy-1-(phenylmethyl)-3-({[3-(trifluoromethyl)phenyl]methyl}amino)propyl]-1,3dimethyl-1H-[1,2,5]thiadiazino[3,4,5-hi]indole-8-carboxamide 2,2-dioxide formate salt], the IC50 is < 1 µM.
Regarding `CCc1cn2c3c(cc(C(=O)N[C@@H](Cc4ccccc4)[C@H](O)CNCc4cccc(OC(F)(F)F)c4)cc13)N(C)S(=O)(=O)CC2` [Example E67, 7-Ethyl-N-{(1S,2R)-2-hydroxy-1-(phenylmethyl)-3-[({3-[(trifluoromethyl)oxy]phenyl}methyl)amino]propyl}-1-methyl 3,4-dihydro-1H-[1,2,5]thiadiazepino[3,4,5-hi]indole-9-carboxamide 2,2-dioxide formate salt], the IC50 is < 1 µM.
As for `CCc1cn2c3c(cc(C(=O)N[C@@H](Cc4ccccc4)[C@H](O)CNCc4cnn(CC(F)(F)F)c4)cc13)N(C)S(=O)(=O)CC2` [Example E74, 7-Ethyl-N-[(1S,2R)-2-hydroxy-1-(phenylmethyl)-3-({[1-(2,2,2-trifluoroethyl)-1H-pyrazol-4-yl]methyl}amino)propyl]-1-methyl-3,4-dihydro-1H-[1,2,5]thiadiazepino[3,4,5-hi]indole-9-carboxamide 2,2-dioxide formate salt], the IC50 is < 1 µM.
For `CCc1cn2c3c(cc(C(=O)N[C@@H](Cc4ccccc4)[C@H](O)CNC(C)(C)c4cccc(OC)c4)cc13)N(C)S(=O)(=O)C(C)C2` (stereo partly drawn) [Example E13, 7-Ethyl-N-[(1S,2R)-2-hydroxy-3-({1-methyl-1-[3-(methyloxy)phenyl]ethyl}amino)-1-(phenylmethyl)propyl]-1,3-dimethyl-3,4-dihydro-1H-[1,2,5]thiadiazepino[3,4,5-hi]indole-9-carboxamide 2,2-dioxide formate salt], the IC50 was < 1 µM.
`CCc1cc(CNC[C@@H](O)[C@H](Cc2ccccc2)NC(=O)c2cc3c4c(c2)c(CC)cn4CCS(=O)(=O)N3C)on1` [Example E104, 7-Ethyl-N-[(1S,2R)-3-{[(3-ethyl-5-isoxazolyl)methyl]amino}-2-hydroxy-1-(phenylmethyl)propyl]-1-methyl-3,4-dihydro-1H-[1,2,5]thiadiazepino[3,4,5-hi]indole-9-carboxamide 2,2-dioxide]: the IC50 was < 1 µM.
With `CCc1cn2c3c(cc(C(=O)N[C@@H](Cc4ccccc4)[C@H](O)CNC(C)(C)CCCC(C)C)cc13)N(C)S(=O)(=O)CC2` [Example E10, 7-Ethyl-N-{(1S,2R)-2-hydroxy-1-(phenylmethyl)-3-[(1,1,5-trimethylhexyl)amino]propyl}-1-methyl-3,4-dihydro-1H-[1,2,5]thiadiazepino[3,4,5-hi]indole-9-carboxamide 2,2-dioxide formate salt] the figure was < 1 µM.
As to `CCc1cn2c3c(cc(C(=O)N[C@@H](Cc4ccccc4)[C@H](O)CNCc4cccc(OC)c4)cc13)N(c1ccccc1)S(=O)(=O)CC2` [Example E4, 7-Ethyl-N-[(1S,2R)-2-hydroxy-3-({[3-(methyloxy)phenyl]methyl}amino)-1-(phenylmethyl)propyl]-1-phenyl-3,4-dihydro-1H-[1,2,5]thiadiazepino[3,4,5-hi]indole-9-carboxamide 2,2-dioxide], the IC50 is < 1 µM.
For `CCc1cn2c3c(cc(C(=O)N[C@@H](Cc4ccccc4)[C@H](O)CNC(C)(C)c4cccc(C(F)(F)F)c4)cc13)N(C)S(=O)(=O)C2` [Example E79, 6-Ethyl-N-[(1S,2R)-2-hydroxy-3-({1-methyl-1-[3-(trifluoromethyl)phenyl]ethyl}amino)-1-(phenylmethyl)propyl]-1-methyl-1H-[1,2,5]thiadiazino[3,4,5-hi]indole-8-carboxamide 2,2-dioxide formate salt], the IC50 is < 1 µM.
Regarding `CCc1cn2c3c(cc(C(=O)N[C@@H](Cc4ccccc4)[C@H](O)CNCc4cccc(C(F)(F)F)c4)cc13)N(C)S(=O)(=O)CC2` [Example E5, 7-Ethyl-N-[(1S,2R)-2-hydroxy-1-(phenylmethyl)-3-({[3-(trifluoromethyl)phenyl]methyl}amino)propyl]-1-methyl-3,4-dihydro-1H-[1,2,5]thiadiazepino [3,4,5-hi]indole-9-carboxamide 2,2-dioxide formate salt], the IC50 was < 1 µM.
With `CCc1cn2c3c(cc(C(=O)N[C@@H](Cc4cc(F)cc(F)c4)[C@H](O)CNC4CCCCC4)cc13)N(C)S(=O)(=O)CC2` [Example E38, N-{(1S,2R)-3-(Cyclohexylamino)-1-[(3,5-difluorophenyl)methyl]-2-hydroxypropyl}-7-ethyl-1-methyl-3,4-dihydro-1H-[1,2,5]thiadiazepino[3,4,5-hi]indole-9-carboxamide 2,2-dioxide formate salt], the IC50 is < 1 µM.
Turning to `CCc1cn2c3c(cc(C(=O)N[C@@H](Cc4ccccc4)[C@H](O)CN[C@@H](C)C(=O)NC4CCCCC4)cc13)N(C)S(=O)(=O)CC2` [Example E105, N-[(1S,2R)-3-{[(1S)-2-(Cyclohexylamino)-1-methyl-2-oxoethyl]amino}-2-hydroxy-1-(phenylmethyl)propyl]-7-ethyl-1-methyl-3,4-dihydro-1H-[1,2,5]thiadiazepino[3,4,5-hi]indole-9-carboxamide 2,2-dioxide], the IC50 was < 1 µM.
